Results as given in patent US9040233B2 (priority 2007, dated 2015).
Read-outs that look alike come from different tables or passages of the source.

System: CD8+ T cells
Type: cell-based, human

`CC(C)[C@H](NC(=O)[C@H](Cc1ccccc1)NC(=O)[C@H](CCCNC(=N)N)NC(=O)[C@H](C)NC(=O)[C@H](Cc1c[nH]cn1)NC(=O)[C@H](C)NC(=O)[C@H](C)N)C(=O)N[C@@H](C)C(=O)N[C@@H](C)C(=O)O` was tested, and the “# SFU” value (donor D454 (LTBI)) was 88 SFU/250,000 CD8+ T cells.
In the case of `CSCC[C@H](NC(=O)[C@H](CCC(=O)O)NC(=O)[C@H](C)N)C(=O)N[C@@H](CCCCN)C(=O)N[C@H](C(=O)N[C@@H](CC(=O)O)C(=O)N[C@@H](C)C(=O)N[C@@H](C)C(=O)O)[C@@H](C)O`, the “# SFU” value (donor D466 (active TB)) is reported as 2458 SFU/250,000 CD8+ T cells.
In the case of `CSCC[C@H](NC(=O)[C@H](CCC(=O)O)NC(=O)[C@H](C)N)C(=O)N[C@@H](CCCCN)C(=O)N[C@H](C(=O)N[C@@H](CC(=O)O)C(=O)N[C@@H](C)C(=O)N[C@@H](C)C(=O)N[C@H](C(=O)N[C@@H](CC(C)C)C(=O)N[C@@H](C)C(=O)O)[C@@H](C)O)[C@@H](C)O`, the “# SFU” value is reported as 1993 SFU/250,000 CD8+ T cells.
For `CC(C)C[C@H](NC(=O)[C@H](Cc1ccc(O)cc1)NC(=O)[C@H](CO)NC(=O)[C@H](CCC(N)=O)NC(=O)[C@H](C)NC(=O)[C@@H](NC(=O)[C@@H]1CCCN1C(=O)[C@H](CO)NC(=O)[C@H](C)N)C(C)C)C(=O)O`, the “# SFU” value (donor D432 (active TB)) was 210 SFU/250,000 CD8+ T cells.
With `CC[C@H](C)[C@H](NC(=O)[C@@H](NC(=O)[C@H](C)N)C(C)C)C(=O)N[C@@H](CC(N)=O)C(=O)N[C@H](C(=O)N[C@H](C(=O)N[C@@H](CS)C(=O)N[C@@H](CC(N)=O)C(=O)N[C@@H](Cc1ccc(O)cc1)C(=O)NCC(=O)N[C@@H](CCC(N)=O)C(=O)O)[C@@H](C)O)[C@@H](C)O` the “# SFU” value (donor D454 (LTBI)) was 24 SFU/250,000 CD8+ T cells.
With `CSCC[C@H](NC(=O)[C@@H](N)CCC(=O)O)C(=O)N[C@@H](CCCCN)C(=O)N[C@H](C(=O)N[C@@H](CC(=O)O)C(=O)N[C@@H](C)C(=O)N[C@@H](C)C(=O)N[C@H](C(=O)N[C@@H](CC(C)C)C(=O)O)[C@@H](C)O)[C@@H](C)O` the “# SFU” value (donor D480 (active TB)) was 387 SFU/250,000 CD8+ T cells.
In the case of `CC[C@H](C)[C@H](NC(=O)[C@H](Cc1c[nH]cn1)NC(=O)[C@H](C)NC(=O)[C@H](CC(=O)O)NC(=O)[C@H](CC(C)C)NC(=O)[C@@H](N)CC(C)C)C(=O)N1CCC[C@H]1C(=O)N[C@@H](CCC(N)=O)C(=O)N[C@@H](CC(C)C)C(=O)O`, the “# SFU” value (donor D504 (LTBI)) is reported as <10 SFU/250,000 CD8+ T cells.
`CC[C@H](C)[C@H](NC(=O)[C@@H](N)CC(N)=O)C(=O)N[C@@H](CCCNC(=N)N)C(=O)N[C@@H](CCC(N)=O)C(=O)N[C@@H](C)C(=O)NCC(=O)N[C@H](C(=O)N[C@@H](CCC(N)=O)C(=O)N[C@@H](Cc1ccc(O)cc1)C(=O)O)C(C)C` was tested, and the “# SFU” value (donor D481 (active TB)) was 1715 SFU/250,000 CD8+ T cells.
With `CC(C)[C@H](NC(=O)[C@H](C)NC(=O)[C@H](C)NC(=O)[C@H](CCC(N)=O)NC(=O)[C@H](C)NC(=O)[C@H](C)NC(=O)[C@@H](N)[C@@H](C)O)C(=O)N[C@H](C(=O)N[C@@H](CCCNC(=N)N)C(=O)N[C@@H](Cc1ccccc1)C(=O)O)C(C)C` the “# SFU” value was 258 SFU/250,000 CD8+ T cells.
For ELPQWLSANR, the “# SFU” value was <10 SFU/250,000 CD8+ T cells.
In the case of QTVEDEARRMW, the “#SFU/250,000 CD8+ T-cells” value is reported as 84.
With RADEEQQQAL the “# SFU” value was 120 SFU/250,000 CD8+ T cells.
